{
  "source": "patent US20230405315A1",
  "about": "“Compositions And Methods For Treating With A Combination Of Alternating Electric Fields And FGF Inhibitors” (NOVOCURE GMBH, priority 2022, published 2023)",
  "key": {"[1]": {"test_system": "GBM biopsy specimen (SRA4, SRC1, SRC2, SRB2, and SRA5) glioblastoma stem cells", "experiment": "Cell survival to TTFields in the presence of FGFR1 inhibitor", "type": "cell-based", "settings": "5 GBM biopsy specimen, 3 days of TTFields 200 kHz and PMGB 125 nM", "protocol": "(§1) This study focuses on the involvement of FGFR1 in the control of sensitivity to TTFields. The study was performed on several glioblastoma stem cells (GSC) fully characterized in vitro and in vivo that were obtained from clinical trial STEMRI (NCT01872221) at Institut Claudius Regaud. The inventors wish to thank Institut Claudius Regaud for providing the glioblastoma stem cells used in these experiments.\nThe mechanism of radiation to induce cell death can be a result of DNA damage which leads to apoptosis, because it is known that TTFields also generate DNA damage and reduce the DNA repair mechanism. Radio sensitization is […] following addition of FGFR inhibitor. There is increased sensitivity to TTFields when there is concomitant treatment with FGFR inhibition which indicates a synergistic result of increased secretion of FGF family members in serum and conditioned media following TTFields application, thus explaining the reduced sensitivity of cells to TTFields."}, "[2]": {"test_system": "FGFR1 mRNA expression in SRC1 and SRC2 glioblastoma stem cells", "experiment": "FGFR1 mRNA expression by qPCR in glioblastoma stem cells treated with TTFields and FGFR inhibitor", "type": "cell-based", "settings": "PMGB 125 nM concomitantly with TTFields 200 kHz for 3 days", "protocol": "FGFR1 mRNA level was quantified by qPCR in SRC1 and SRC2 glioblastoma stem cells after 3 days treatment with TTFields (200 kHz). Results are expressed in Fold change of FGFR1 expression in cells treated with TTFields compared to FGFR1 expression in non treated cells with TTFields.\nPemigatininb (PMGB) is an FGFR inhibitor. SRC1 and SRC2 were treated concomitantly with PMGB (125 nM) and TTFields (200 kHz) for 3 days. Results are expressed in Fold change of FGFR1 expression in cells treated with TTFields compared to FGFR1 expression in control cells.\nas §1"}, "FGF1, 2, 3, or 4": {"test_system": "FGF1, 2, 3, or 4", "settings": "comparison with lenvatinib (nonselective inhibitor of FGFR); cited from earlier work"}},
  "data": [
    {"smiles": "CCN1C(=O)N(c2c(F)c(OC)cc(OC)c2F)Cc2cnc3[nH]c(CN4CCOCC4)cc3c21", "note": "[Pemigatinib]", "values": [
      {"measurement": "Cytotoxic effect / cell survival", "setting": "[1]", "result": "cytotoxic effect"},
      {"measurement": "FGFR1 mRNA expression induced by TTFields (fold change vs control cells)", "setting": "[2]; listed as PMGB", "result": "inhibited"},
      {"measurement": "FGFR1 mRNA expression induced by TTFields (fold change vs control cells)", "setting": "[2]; listed as pemigatinib", "result": "inhibition"},
      {"measurement": "IC50 against at least one of FGF1, 2, 3, or 4, compared with lenvatinib", "setting": "FGF1, 2, 3, or 4", "result": "significantly lower IC50"}
    ]}
  ]
}
